Like-named read-outs stand apart in the source and are kept apart here.
How the values were obtained:
[1] = system: Rinderherz PDE "Boehringer"; test: Inhibition of phosphodiesterase (PDE), substrate cAMP; type: biochemical, Rind; settings: compound 0,2 mM; substrate cAMP 0,15 mM; Rinderherz PDE in Glycerin; 200 µM
Protocol: Die Tabelle 1. gibt die gefundenen Werte der Hemmung der Phosphodiesterase (PDE) an. Es wurde Rinderherz PDE "Boehringer" in Glycerin und als Substrat cAMP (0,15 mM) verwendet. Die Konzentration der untersuchten Verbindungen war 0,2 mM.

[2] = system: durch Methanol hervorgerufene Retinaschädigung; test: Retinotropic effect measured on the mouse electroretinogram (antagonism of methanol-induced retinal damage); type: in vivo, Maus; settings: for Retinotrope Wirkung [%]: Elektroretinogramm der Maus; for retinotrope Wirkung (in words): in the dose range in which the compounds of the invention were tested
Description: Die Versuchsmethodik ist bei K.K.Gauri und W.Hohl, Der Augenspiegel, 1979 (Heft 9), und […] Referenzen beschrieben.

[3] = system: Trachealspangen-Kette des Meerschweinchens; test: Relaxation of the spontaneously contracted guinea pig tracheal ring chain in vitro (organ bath); parameters: species or system Meerschweinchen; settings: for Relative Wirkungsstärke (Theophyllin=1,00): relative to Theophyllin, from ED50 of tracheal relaxation; for EC50: relaxation as fraction of maximum by (-)Isoprenalin 10^-6 mol/l, cumulative concentrations, 37°C, read-out: ED50 (Dosis der halbmaximal möglichen Relaxation)
Protocol: Weiterhin wurde die relaxierende Wirkung erfindungsgemäBer Verbindungen auf die Trachealspangen-Kette des Meerschweinchens in vitro geprüft:
Vier parallele, aus jeweils 6 Einzelringen bestehende Trachealspangen-Ketten des Meerschweinchens (♂ und ♀, 430-600 g) im Organbad (5 ml, Krebs-Henseleit-Lösung mit Zusatz von Phentolamin (10^-5 mol/l, 37°C, Vorspannung der Organe 2 g, Begasung mit Carbogen) entwickeln nach etwa 20 bis 30 Minuten eine stabile, tonische Spontankontraktur. An diesen dauerkontrahierten Organen kann unter isometrischen Meßbedingungen durch Applikation der Prüfsubstanz in kumulativhalblogarithmisch ansteigender Konzentration (z.B. 1x10^-6 + 2x10^-6 + 7x10^-6 + 2x10^-5 usw. mol/l) eine Relaxation herbeigeführt werden, wobei nach jeder Einzeldosis der Testsubstanz eine konstante Relaxations-Antwort abgewartet wird, bevor die nächst höhere Konzentration appliziert wird. Ober einen Zeitraum von 20 bis 30 Minuten wird somit eine vollständige Dosis-Wirkungskurve der Testsubstanz erhalten. Die jeweilige Relaxation wird als Prozentbruchteil der durch Gabe von (-)Isoprenalin (10^-6 mol/1) maximal erreichbaren Relaxation ausgedrückt.
In Tabelle 3 sind die ED50 (Dosis der halbmaximal möglichen Relaxation) und die relative Wirkungsstärke im Vergleich zu Theophyllin für erfindungsgemäße Verbindungen angegeben.

| SMILES | Hemmung der PDE in % [1] | Relative Wirkungsstärke (Theophyllin=1,00) [3] | EC50 [3] | other results |
| --- | --- | --- | --- | --- |
| CCCCCCn1c(=O)n(C)c(=O)c2c[nH]nc21 [I, 7-n-Hexyl-4,5,6,7-tetrahydro-5-methyl-4,6-dioxo-2H-pyrazolo[3,4-d]-pyrimidin] | 47,84% |  |  |  |
| CCCCCCn1c(=O)n(C)c(=O)c2cn(C)nc21 [II, 7-n-Hexyl-4,5,6,7-tetrahydro-2,5-dimethyl-4,6-dioxo-2H-pyrazolo[3,4-d]-pyrimidin] | 47,41% |  |  |  |
| CCCCCCn1c(=O)n(C)c(=O)c2cn(CC)nc21 [III, 2-Ethyl-7-n-hexyl-4,5,6,7-tetrahydro-5-methyl-4,6-dioxo-2H-pyrazolo-[3,4-d]pyrimidin] | 58,51% |  |  | Retinotrope Wirkung [%] ([2]; Dosis 1 mg/kg): +24% |
| CCCCCCn1c(=O)n(C)c(=O)c2cn(CCC)nc21 [IV, 7-n-Hexyl-4,5,6,7-tetrahydro-5-methyl-4,6-dioxo-2-n-propyl-2H-pyrazolo-[3,4-d]pyrimidin] | 63,04% |  |  |  |
| CCCCCCn1c(=O)c2cn(CC)nc2n(C)c1=O [IX, 2-Ethyl-5-n-hexyl-4,5,6,7-tetrahydro-7-methyl-4,6-dioxo-2H-pyrazolo-[3,4-d]pyrimidin] | 71,52% | 3,4 | 38 µM | Retinotrope Wirkung [%] ([2]; Dosis 1 mg/kg): +12% |
| CC(=O)CCCCn1c(=O)c2c(ncn2C)n(C)c1=O [Pentoxifyllin, reference compound] |  |  |  | Retinotrope Wirkung [%] ([2]; Dosis 6,25 mg/kg): 0%; retinotrope Wirkung (in words) [2]: noch keine retinotrope Wirkung |
| Cn1c(=O)c2[nH]cnc2n(C)c1=O [Theophyllin, reference compound] | 37,13% | 1,00 | 130 µM | Retinotrope Wirkung [%] ([2]; Dosis 10 mg/kg): 0%; retinotrope Wirkung (in words) [2]: noch keine retinotrope Wirkung |
| CCCCCCn1c(=O)n(C)c(=O)c2cn(CCCC)nc21 [V, 2-n-Butyl-7-n-hexyl-4,5,6,7-tetrahydro-5-methyl-4,6-dioxo-2H-pyra-zolo-[3,4-d]pyrimidin] | 70,86% | 1,8 | 62 µM |  |
| CCCCCCn1cc2c(=O)n(C)c(=O)n(CCCCCC)c2n1 [VI, 2,7-Di-n-hexyl-4,5,6,7-tetrahydro-5-methyl-4,6-dioxo-2H-pyrazolo[3,4-d]-pyrimidin] | 37,30% |  |  |  |
| CCCCCCn1c(=O)c2cn[nH]c2n(C)c1=O [VII, 5-n-Hexyl-4,5,6,7-tetrahydro-7-methyl-4,6-dioxo-1H-pyrazolo[3,4-d]-pyrimidin] | 52,43% |  |  |  |
| CCCCCCn1c(=O)c2cn(C)nc2n(C)c1=O [VIII, 5-n-Hexyl-4,5,6,7-tetrahydro-2,7-dimethyl-4,6-dioxo-2H-pyrazolo-[3,4-d]pyrimidin] | 42,04% |  |  |  |
| CCCCCCn1c(=O)c2cn(CCCC)nc2n(C)c1=O [X, 2-n-Butyl-5-n-hexyl-4,5,6,7-tetrahydro-7-methyl-4,6-dioxo-2H-pyra-zolo[3,4-d]pyrimidin] | 37,83% |  |  |  |
| CCCCCCn1cc2c(=O)n(CCCCCC)c(=O)n(C)c2n1 [XI, 2,5-Di-n-hexyl-4,5,6,7-tetrahydro-7-methyl-4,6-dioxo-2H-pyrazolo-[3,4-d]pyrimidin] | 18,35% |  |  |  |
| CCCCCCn1c(=O)c2cn(C(=O)c3cc(OC)c(OC)c(OC)c3)nc2n(C)c1=O [XII, 5-n-Hexyl-4,5,6,7-tetrahydro-2-(3,4,5-trimethoxybenzoyl)-7-methyl-4,6-dioxo-2H-pyrazolo[3,4-d]pyrimidin] |  | 3,7 |  | EC50 ([3]; Cavia porcellus): 350 µM; Retinotrope Wirkung [%] ([2]; Dosis 1 mg/kg): +40% |
| CCCCCCn1c(=O)n(C)c(=O)c2cnn(C)c21 [XIII, 7-Hexyl-4,5,6,7-tetrahydro-1,5-dimethyl-4,6-dioxo-1H-pyrazolo-[3,4-d]pyrimidin] |  | 1,4 | 95 µM |  |
| COc1cc(C(=O)n2cc3c(=O)n(CC(C)C)c(=O)n(C)c3n2)cc(OC)c1OC [XVI, 5-i-Butyl-4,5,6,7-tetrahydro-2-(3,4,5-trimethoxybenzoyl)-7-methyl-4,6-dioxo-2H-pyrazolo[3,4-d]pyrimidin] |  | 1,7 | 75 µM |  |
| CCn1c(=O)n(CCCCC(C)=O)c(=O)c2cnn(C)c21 [XVII, 7-Ethyl-4,5,6,7-tetrahydro-1-methyl-4,6-dioxo-5'-(5-oxo-n-hexyl)-1H-pyrazolo[3,4-d]pyrimidin] |  | 2,0 | 66 µM | Retinotrope Wirkung [%] ([2]; Dosis 2 mg/kg): +80% |
| CC(C)Cn1c(=O)n(C)c(=O)c2cn(CCO)nc21 [XVIII, 7-j-Butyl-4,5,6,7-tetrahydro-2-(2-hydroxyethyl)-5-methyl-4,6-dioxo-2H-pyrazolo[3,4-d]pyrimidin] |  | 10,0 | 13 µM |  |
| CC(C)Cn1c(=O)n(C)c(=O)c2c[nH]nc21 [XV] |  | 7,6 | 17 µM |  |

Source: patent EP0063381A1, “Pyrazolo(3-4-d) pyrimidines, process for their preparation and pharmaceutical compositions containing them” (Byk Gulden Lomberg Chemische Fabrik GmbH, priority 1981, dated 1982)
